Laboratory results published in ChEMBL document CHEMBL3124786, “The discovery of reverse tricyclic pyridone JAK2 inhibitors. Part 2: lead optimization” (Bioorg Med Chem Lett, 2014).

Experiments:
[1] = Plasma clearance in rat; assay type: ADME, organism-based
[2] = biological target: T1, Tyrosine-protein kinase JAK2 (Homo sapiens, UniProt O60674); assay: Inhibition of recombinant Jak2 (unknown origin) using biotinylated synthetic peptide substrate by homogeneous time resolved fluorescence assay
[3] = biological target: T1, Tyrosine-protein kinase JAK2; assay: Inhibition of Jak2 (unknown origin) assessed as inhibition of STAT5 phosphorylation by cell-based assay
Mus musculus = assay: Inhibition of Jak2 (unknown origin) in po dosed […] mouse assessed as inhibition of STAT5 phosphorylation measured after 1 to 8 hrs of dosing by PK/PD assay; assay type: functional, organism-based
Rattus norvegicus = species on record: Rattus norvegicus; assay: Unbound clearance in rat; assay type: ADME, organism-based; conditions: in vivo
[4] = Plasma protein binding in rat; assay type: ADME, cell-free; conditions: read-out: PPB (converted)
[5] = Half life in rat; assay type: ADME, organism-based; conditions: in vivo
[6] = Volume of distribution in rat; assay type: ADME, organism-based; conditions: in vivo
[7] = Mus musculus, C56bl/6, read-out: IC50

T1 sequence (O60674 whole entry): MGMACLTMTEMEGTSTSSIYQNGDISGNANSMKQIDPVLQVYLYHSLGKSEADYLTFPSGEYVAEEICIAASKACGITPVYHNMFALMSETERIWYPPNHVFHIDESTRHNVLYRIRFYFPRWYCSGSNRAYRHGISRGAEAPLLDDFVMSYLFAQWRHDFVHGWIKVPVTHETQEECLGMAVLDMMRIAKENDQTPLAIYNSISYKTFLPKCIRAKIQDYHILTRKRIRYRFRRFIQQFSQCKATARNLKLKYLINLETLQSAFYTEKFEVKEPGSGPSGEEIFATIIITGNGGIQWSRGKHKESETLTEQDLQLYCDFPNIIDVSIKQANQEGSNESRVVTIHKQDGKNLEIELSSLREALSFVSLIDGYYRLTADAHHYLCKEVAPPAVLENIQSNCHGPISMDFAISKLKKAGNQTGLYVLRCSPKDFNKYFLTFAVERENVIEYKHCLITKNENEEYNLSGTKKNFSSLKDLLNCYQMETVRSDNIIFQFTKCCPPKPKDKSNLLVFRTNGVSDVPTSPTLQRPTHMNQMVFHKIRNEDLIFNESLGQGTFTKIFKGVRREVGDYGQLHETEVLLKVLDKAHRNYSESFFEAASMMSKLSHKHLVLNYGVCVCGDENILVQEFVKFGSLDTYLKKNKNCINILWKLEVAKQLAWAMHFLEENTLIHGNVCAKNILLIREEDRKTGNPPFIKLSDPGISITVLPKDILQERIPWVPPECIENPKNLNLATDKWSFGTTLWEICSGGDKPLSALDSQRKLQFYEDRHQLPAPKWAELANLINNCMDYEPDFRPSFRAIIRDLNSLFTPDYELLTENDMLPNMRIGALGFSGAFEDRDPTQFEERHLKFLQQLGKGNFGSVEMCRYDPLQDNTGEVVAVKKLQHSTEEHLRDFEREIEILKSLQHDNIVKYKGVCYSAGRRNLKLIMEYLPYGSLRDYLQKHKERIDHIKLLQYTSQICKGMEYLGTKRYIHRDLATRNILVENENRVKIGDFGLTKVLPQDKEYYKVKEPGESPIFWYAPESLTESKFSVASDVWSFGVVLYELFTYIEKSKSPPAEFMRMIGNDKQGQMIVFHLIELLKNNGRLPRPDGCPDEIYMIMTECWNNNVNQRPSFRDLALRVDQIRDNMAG

Row | clearance [1] [mL/min/kg] | IC50 [2] [nM] | IC50 [3] [nM] | IC50 (Mus musculus; [7]) [nM] | CL (Rattus norvegicus) [mL/min/kg] | fraction unbound [4] | IC50 (Mus musculus) | half-life [5] [min] | Vd [6] [L/kg] | Compound
1 | 68 | – | – | – | – | – | – | – | – | CC(C)[C@@H](Nc1nc2cc[nH]c(=O)c2c2cnccc12)C(F)(F)F
2 | – | 200 | – | – | – | – | – | – | – | O=c1[nH]ccc2c(NC3CC3)nc3ccc(F)cc3c12
3 | – | 100 | – | – | – | – | – | – | – | O=c1[nH]ccc2nc(NC3CC3)c3ccc(F)cc3c12
4 | – | 7 | 90 | – | – | – | – | – | – | O=c1[nH]ccc2c(Nc3c(F)cc(F)cc3F)nc3ccncc3c12
5 | – | 0.8 | 14 | – | – | – | – | – | – | O=c1[nH]ccc2c(Nc3c(Cl)cc(F)cc3Cl)nc3ccncc3c12
6 | – | 2 | 24 | – | – | – | – | – | – | O=c1[nH]ccc2c(Nc3c(Cl)cncc3Cl)nc3ccncc3c12
7 | – | 3 | 140 | – | – | – | – | – | – | O=c1[nH]ccc2c(Nc3c(Cl)cc(OC(F)(F)F)cc3Cl)nc3ccncc3c12
8 | – | 1 | 49 | – | – | – | – | – | – | O=c1[nH]ccc2c(Nc3c(Cl)cc(C(F)(F)F)cc3Cl)nc3ccncc3c12
9 | – | 9 | 90 | – | – | – | – | – | – | O=c1[nH]ccc2c(Nc3c(F)cccc3C(F)(F)F)nc3ccncc3c12
10 | 54 | 0.6 | 12 | 400 | 1125 | 0.048 | – | – | – | CC(O)c1cc(Cl)c(Nc2nc3ccncc3c3c(=O)[nH]ccc23)c(Cl)c1 (stereo not drawn)
11 | 29 | 0.5 | 18 | 1200 | 1115 | 0.026 | – | – | – | CC(C)(O)c1cc(Cl)c(Nc2nc3ccncc3c3c(=O)[nH]ccc23)c(Cl)c1
12 | 10 | 1 | 37 | – | 10000 | 0.001 | Not Active | – | – | O=c1[nH]ccc2c(Nc3c(Cl)cc(-c4ccn[nH]4)cc3Cl)nc3ccncc3c12
13 | 16 | 0.2 | 26 | 1300 | 571 | 0.028 | – | – | – | O=c1[nH]ccc2c(Nc3c(Cl)cc(C(O)C(F)F)cc3Cl)nc3ccncc3c12 (stereo not drawn)
14 | 50 | 0.15 | 113 | – | – | – | Not Active | – | – | NS(=O)(=O)c1cc(Cl)c(Nc2nc3ccncc3c3c(=O)[nH]ccc23)c(Cl)c1
15 | – | 10 | 170 | – | – | – | – | – | – | CC(C)[C@H](Nc1nc2ccncc2c2c(=O)[nH]ccc12)C(F)(F)F
16 | 41 | 0.9 | 15 | 2300 | 875 | 0.048 | – | 48 | 2.6 | O=c1[nH]ccc2c(Nc3c(F)cc(F)cc3Cl)nc3ccncc3c12
